Results reported in US12611406B2, “Oxopiperazine derivatives for the treatment of cancer” (Inthera Bioscience AG, priority 2020, dated 2026).
Like-named read-outs stand apart in the source and are kept apart here.

What was measured:
[1] = 5 consecutive days oral toxicity study in CD-1 mice; format: in vivo; details: 30 mg/kg/day orally once daily for 5 consecutive days
Procedure: The toxicity of Compound 1 was assessed for several dosing regimens for CD-1 mice, Beagle dogs, and cynomolgus monkeys.

[2] = Plasma protein binding, equilibrium dialysis; format: in vitro ADME, cynomolgus monkey; details: monkey plasma, 37° C, buffer pH 7.4; read-out: Fraction unbound (Fu), Mean
Procedure: Protein binding of Compound 1 to the plasma from several species, i.e., human, cynomolgus monkey, dog, rat, and mouse was investigated in vitro by incubation in plasma and determination of unbound fraction of Compound 1 using equilibrium dialysis. Compound 1 was incubated in 100% species-specific plasma and added to one side of the membrane in an equilibrium dialysis system while buffer (pH 7.4) is added to the other side. The system was allowed to reach equilibrium at 37° C. Compound concentration on both sides of the membrane is measured by liquid chromatography—tandem mass spectroscopy (LC-MS/MS).

[3] = Single dose oral gavage or intravenous PK in female cynomolgus monkeys, plasma; format: in vivo; details: for clearance / Vd / AUC(0-inf) / AUC(0-t) / Cmax / Tmax / half-life: female, cynomolgus monkey, plasma; for clearance: read-out: cleared (Cl), mean rate (converted); for Vd: read-out: mean volume of distribution (Vz)
Procedure: The objective of the study was to determine the PK profile of Compound 1 following a single oral gavage or intravenous injection administration on 5 different occasions to female cynomolgus monkeys.
Compound 1, was administered as consecutive single doses on 5 occasions, separated by a washout period, by either oral gavage (4 and 12 mg/kg, Days 1 and 8) or by slow bolus intravenous (IV) injection (0.2 and 0.6 mg/kg, Days 15 and 22) to a group of female monkeys. In a subset of dosing the influence of grapefruit juice was evaluated (Day 34). Each single dose (Days 1, 8, 15, 22, and 34) was separated by a 7-day washout period. Blood samples were collected on Days 1, 8, 15, 22 and 34 at selected time points, i.e., 15 min, 30 min, as well as 1, 2, 4, 6, 8, and 24 hours relative to treatment for analysis of the concentration of Compound 1 in plasma and subsequent calculation of PK parameters. Additional parameters monitored included mortality, clinical observations and body weight.

PR6512 = PR6512 mouse PDX prostate cancer model, daily oral; format: in vivo
Text: FIG. 7B the efficacy of Compound 1 in the in vivo mouse PDX prostate cancer model PR6512. […] QD: once daily treatment. po: per os.
Again, an effect of the body weight was detected in all treatment groups (including the vehicle group).

[4] = Single dose oral and intravenous PK in CD-1 mice (mesylate salt), blood; format: in vivo; design: AUC(0-t) / AUC(0-inf): unit not given here; details: male, CD-1, mouse, whole blood
Procedure: These studies analyzed the PK profile of Compound 1 following a single oral gavage or single intravenous dose to CD-1 mice.
Compound 1 (mesylate salt) was administered to four groups of male mice (n=4/group) as a single oral (po) gavage administration at dose levels of 5, 10, 20, and 50 mg/kg/adm or as single intravenous (IV) dose at 5 and 50 mg/kg/adm. The vehicle was 1% methylcellulose with 0.1% Tween-80 in study AMP800 and 5% dextrose in water in study AMP799. Blood samples were collected at pre-dose, 10 minutes, 40 minutes, 2, 4, and 7 hours after administration for analysis of Compound 1 concentrations in blood by liquid chromatography—tandem mass spectroscopy (LC-MS/MS) and subsequent calculation of PK parameters.

p300 = assay: Western blot of p53 acetylated by p300 on K382 in LNCaP cells; format: cell-based
Procedure: Top panel: Cell cycle distribution in LNCap cells treated with siRNA (2 bars on the right) in comparison to control LNCaP cells without siRNA treatment (2 bars in the middle), in the absence (−) or presence (+) of Compound 1 for 24 h at the indicated concentration. For comparison, DU-145 cells harboring a combined Rb1 and p53 loss-of-function are included (2 bars on the left). Lower panel: Western blot analysis according to the same experimental conditions as given for the top panel.

PC cells = assay: Anti-proliferative assay, five day treatment, CellTiter-Glo; format: cell-based; details: growth inhibition
Text: The amount of cells remaining at the end of the treatment was estimated by CellTiter-Glo (Promega).
Many of the cell lines in this subset had deficiencies in the Rb1 and p53 tumor suppressor pathways.

## CC(C)C[C@@H]1NCCN([C@@H](CC(C)C)C(=O)N2CCC3(C[C@@H]2C)OCC(CN2CCCC2)CO3)C1=O (stereo partly drawn) [Compound 1, (S)-3-isobutyl-1-((S)-4-methyl-1-((S)-8-methyl-3-(pyrrolidin-1-ylmethyl)-1,5-dioxa-9-azaspiro[5.5]undecan-9-yl)-1-oxopentan-2-yl)piperazin-2-one]
[1]
  tolerability: well-tolerated
[2]
  fraction unbound: 0.602
[3]; Day 15 (IV 0.2 mg/kg)
  clearance: 43.2 mL/min/kg
  Vd: 17.4 ± 2.2 L/kg
[3]; Day 22 (IV 0.6 mg/kg)
  clearance: 41 mL/min/kg
  Vd: 16.9 ± 1.91 L/kg
[3]; IV 0.2 mg/kg
  AUC(0-inf): 77.4 ng·h/mL
  AUC(0-t): 76.2 ng·h/mL
  Cmax: 47.6 ng/mL
  Tmax: 0.08 h
  half-life: 4.64 h
[3]; IV 0.6 mg/kg
  AUC(0-inf): 244 ng·h/mL
  AUC(0-t): 240 ng·h/mL
  Cmax: 162 ng/mL
  Tmax: 0.08 h
  half-life: 4.74 h
[3]; po 4 mg/kg
  AUC(0-inf): 17.3 ng·h/mL
  AUC(0-t): 16.9 ng·h/mL
  Cmax: 5.52 ng/mL
  Tmax: 0.5 h
  half-life: 4.7 h
[3]; po 12 mg/kg
  AUC(0-inf): 133 ng·h/mL
  AUC(0-t): 130 ng·h/mL
  Cmax: 53.6 ng/mL
  Tmax: 0.83 h
  half-life: 5.46 h
[3]; intravenous doses up to 0.6 mg/kg
  clinical signs: decrease in appetite
[3]; single oral doses up to 12 mg/kg
  clinical signs: did not result in any adverse clinical signs
[3]; vs animals without grapefruit juice, Day 34
  Cmax increase with grapefruit juice prior to dosing: 2 fold
PR6512; 3 mg/kg QD
  tumor growth: complete block of tumor growth
PR6512; 1, 1.5, 2, and 3 mg/kg daily oral
  tumor growth: dose dependent growth inhibition of tumors
PR6512; PR6512
  PSA in blood: effective PSA reduction
[4]; intravenous 5 mg/kg
  AUC(0-inf): 1.11
  AUC(0-t): 1.03
  Tmax: 0.17 h
  half-life: 2.3 h
[4]; intravenous 50 mg/kg
  AUC(0-inf): 13
  AUC(0-t): 12.2
  Tmax: 0.17 h
  half-life: 1.6 h
[4]; oral 5 mg/kg
  AUC(0-inf): 0.246
  AUC(0-t): 0.179
  Tmax: 0.17 h
  half-life: 4 h
[4]; oral 10 mg/kg
  AUC(0-inf): 0.471
  AUC(0-t): 0.31
  Tmax: 0.17 h
  half-life: 5.6 h
[4]; oral 20 mg/kg
  AUC(0-inf): 2.49
  AUC(0-t): 1.97
  Tmax: 0.17 h
  half-life: 3.2 h
[4]; oral 50 mg/kg
  AUC(0-inf): 3.38
  AUC(0-t): 2.88
  Tmax: 0.67 h
  half-life: 2.6 h
p300; control LNCaP cells
  amount of p53 acetylated by p300 on K382: increased
p300; inferred from p53 K382 acetylation
  HAT/KAT activity of p300: not inhibited
PC cells
  IC50 values: nanomolar range
